Activity calls are given as the source filed them. The calls are words filed in the database; no cut-off is given here.
How the values were obtained:
[1] = molecular target: Amyloid-beta precursor protein (Homo sapiens) (UniProt P05067); test: Disaggregation of amyloid beta (25 to 35 residues) (unknown origin) preformed fibrils at 5 ug/ml after 96 hrs to 9 days by thioflavin T dye based confocal laser scanning microscopy
[2] = molecular target: Amyloid-beta precursor protein (Homo sapiens) (UniProt P05067); test: Inhibition of amyloid beta (25 to 35 residues) (unknown origin) aggregation at 5 ug/ml after 24 to 48 hrs by ThT-based fluorescence spectroscopic method
[3] = molecular target: Amyloid-beta precursor protein (Homo sapiens) (UniProt P05067); test: Inhibition of amyloid beta (25 to 35 residues) (unknown origin) aggregation at 5 ug/ml after 24 to 48 hrs by FTIR spectroscopy
[4] = molecular target: Amyloid-beta precursor protein (Homo sapiens) (UniProt P05067); test: (§1) Inhibition of amyloid beta (25 to 35 residues) (unknown origin)-induced toxicity in rat PC12 cells assessed as protection against amyloid beta (25 to 35 residues)-induced apoptosis by measuring necrotic cells at 5 ug/ml by Annexin V-FITC/propidium iodide staining-based flow cytometric method (reference value: 0.73%); format: cell-based; design: scale not given: the % may be the effect or the level left
[5] = molecular target: Amyloid-beta precursor protein (Homo sapiens) (UniProt P05067); test: Disaggregation of amyloid beta (25 to 35 residues) (unknown origin) preformed fibrils at 5 ug/ml after 96 hrs to 9 days by ThT-based fluorescence spectroscopic method
[6] = molecular target: Amyloid-beta precursor protein (Homo sapiens) (UniProt P05067); test: Inhibition of amyloid beta (25 to 35 residues) (unknown origin) aggregation at 5 ug/ml after 24 to 48 hrs by thioflavin T dye based confocal laser scanning microscopy
[7] = molecular target: Amyloid-beta precursor protein (Homo sapiens) (UniProt P05067); test: Disaggregation of amyloid beta (25 to 35 residues) (unknown origin) preformed fibrils at 5 ug/ml after 96 hrs to 9 days by FTIR spectroscopy
Acetylcholinesterase = Acetylcholinesterase (Homo sapiens, UniProt P22303); test: Inhibition of AChE (unknown origin) preincubated for 45 mins followed by ATCI substrate addition measured for 3 mins
[8] = molecular target: Amyloid-beta precursor protein (Homo sapiens) (UniProt P05067); test: Inhibition of amyloid beta (25 to 35 residues) (unknown origin)-induced toxicity in rat PC12 cells assessed as cell survival at 5 ug/ml after 1 to 3 weeks by clonogenic assay (reference value: 25%); format: cell-based
[9] = molecular target: Amyloid-beta precursor protein (Homo sapiens) (UniProt P05067); test: Inhibition of amyloid beta (25 to 35 residues) (unknown origin) aggregation at 5 ug/ml after 24 to 48 hrs by phosphotungstic acid staining based transmission electron microscopy
[10] = molecular target: Amyloid-beta precursor protein (Homo sapiens) (UniProt P05067); test: Disaggregation of amyloid beta (25 to 35 residues) (unknown origin) preformed fibrils at 5 ug/ml after 96 hrs to 9 days by phosphotungstic acid staining based transmission electron microscopy
[11] = molecular target: Amyloid-beta precursor protein (Homo sapiens) (UniProt P05067); test: (§2) Inhibition of amyloid beta (25 to 35 residues) (unknown origin)-induced toxicity in rat PC12 cells assessed as increase in cell viability at 2 to 10 ug/ml preincubated for 2 hrs followed by amyloid beta (25 to 35 residues) addition measured after 24 hrs by MTT dye based light microscopic assay (reference value: 48%)
[12] = molecular target: Amyloid-beta precursor protein (Homo sapiens) (UniProt P05067); test: as §1, with “early apoptotic” for “necrotic”, “46%)” for “0.73%)”; format: cell-based; design: scale not given: the % may be the effect or the level left
[13] = molecular target: Amyloid-beta precursor protein (Homo sapiens) (UniProt P05067); test: as §1, with “viable” for “necrotic”, “48.71%)” for “0.73%)”; format: cell-based
[14] = molecular target: Amyloid-beta precursor protein (Homo sapiens) (UniProt P05067); test: as §1, with “late apoptotic” for “necrotic”, “4.56%)” for “0.73%)”; format: cell-based; design: scale not given: the % may be the effect or the level left
[15] = molecular target: Amyloid-beta precursor protein (Homo sapiens) (UniProt P05067); test: Disaggregation of amyloid beta (25 to 35 residues) (unknown origin) preformed fibrils at 50 ug/ml after 96 hrs to 9 days by thioflavin T dye based confocal laser scanning microscopy
[16] = molecular target: Amyloid-beta precursor protein (Homo sapiens) (UniProt P05067); test: Inhibition of amyloid beta (25 to 35 residues) (unknown origin) aggregation at 50 ug/ml after 24 to 48 hrs by FTIR spectroscopy
[17] = molecular target: Amyloid-beta precursor protein (Homo sapiens) (UniProt P05067); test: Disaggregation of amyloid beta (25 to 35 residues) (unknown origin) preformed fibrils at 50 ug/ml after 96 hrs to 9 days by FTIR spectroscopy
[18] = molecular target: Amyloid-beta precursor protein (Homo sapiens) (UniProt P05067); test: Inhibition of amyloid beta (25 to 35 residues) (unknown origin) aggregation at 50 ug/ml after 24 to 48 hrs by thioflavin T dye based confocal laser scanning microscopy
[19] = molecular target: Amyloid-beta precursor protein (Homo sapiens) (UniProt P05067); test: Disaggregation of amyloid beta (25 to 35 residues) (unknown origin) preformed fibrils at 50 ug/ml after 96 hrs to 9 days by ThT-based fluorescence spectroscopic method
[20] = molecular target: Amyloid-beta precursor protein (Homo sapiens) (UniProt P05067); test: as §1, with “at 50” for “at 5”; format: cell-based; design: scale not given: the % may be the effect or the level left; conditions: at 50 µg/mL
[21] = molecular target: Amyloid-beta precursor protein (Homo sapiens) (UniProt P05067); test: as §2, with “50” for “2 to 10”; conditions: at 50 µg/mL
[22] = molecular target: Amyloid-beta precursor protein (Homo sapiens) (UniProt P05067); conditions: at 50 µg/mL
Description: Inhibition of amyloid beta (25 to 35 residues) (unknown origin)-induced toxicity in rat PC12 cells assessed as cell survival at 50 ug/ml after 1 to 3 weeks by clonogenic assay (Rvb = 25%)

[23] = molecular target: Amyloid-beta precursor protein (Homo sapiens) (UniProt P05067); test: as §1, with “measuring viable” for “measuring necrotic”, “at 50” for “at 5”, “value: 48.71%)” for “value: 0.73%)”; format: cell-based; conditions: at 50 µg/mL
[24] = molecular target: Amyloid-beta precursor protein (Homo sapiens) (UniProt P05067); test: as §1, with “measuring early apoptotic” for “measuring necrotic”, “at 50” for “at 5”, “value: 46%)” for “value: 0.73%)”; format: cell-based; design: scale not given: the % may be the effect or the level left; conditions: at 50 µg/mL
[25] = molecular target: Amyloid-beta precursor protein (Homo sapiens) (UniProt P05067); test: as §1, with “measuring late apoptotic” for “measuring necrotic”, “at 50” for “at 5”, “value: 4.56%)” for “value: 0.73%)”; format: cell-based; design: scale not given: the % may be the effect or the level left; conditions: at 50 µg/mL

Sequence of Amyloid-beta precursor protein (Homo sapiens) (P05067 whole entry, the tested form may be a part): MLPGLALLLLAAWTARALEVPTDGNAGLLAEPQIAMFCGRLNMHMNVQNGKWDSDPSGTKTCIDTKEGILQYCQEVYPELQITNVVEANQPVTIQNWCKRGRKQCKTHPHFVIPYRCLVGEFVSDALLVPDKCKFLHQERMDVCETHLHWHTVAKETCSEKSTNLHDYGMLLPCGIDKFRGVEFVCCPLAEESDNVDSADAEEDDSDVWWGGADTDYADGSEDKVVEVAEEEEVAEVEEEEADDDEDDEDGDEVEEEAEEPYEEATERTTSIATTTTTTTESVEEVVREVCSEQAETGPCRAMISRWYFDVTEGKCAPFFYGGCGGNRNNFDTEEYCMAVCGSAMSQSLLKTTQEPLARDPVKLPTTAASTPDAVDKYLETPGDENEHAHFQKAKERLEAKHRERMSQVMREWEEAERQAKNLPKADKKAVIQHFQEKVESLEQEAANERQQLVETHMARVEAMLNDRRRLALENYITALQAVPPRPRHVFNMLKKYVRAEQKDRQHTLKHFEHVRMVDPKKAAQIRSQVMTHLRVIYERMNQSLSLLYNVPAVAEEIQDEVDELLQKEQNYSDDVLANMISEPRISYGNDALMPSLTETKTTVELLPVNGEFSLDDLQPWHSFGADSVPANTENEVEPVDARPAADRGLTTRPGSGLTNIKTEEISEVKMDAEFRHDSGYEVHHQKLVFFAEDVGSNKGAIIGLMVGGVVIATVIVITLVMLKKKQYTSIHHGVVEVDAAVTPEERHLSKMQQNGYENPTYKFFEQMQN
Sequence of Acetylcholinesterase (P22303 whole entry, the tested form may be a part): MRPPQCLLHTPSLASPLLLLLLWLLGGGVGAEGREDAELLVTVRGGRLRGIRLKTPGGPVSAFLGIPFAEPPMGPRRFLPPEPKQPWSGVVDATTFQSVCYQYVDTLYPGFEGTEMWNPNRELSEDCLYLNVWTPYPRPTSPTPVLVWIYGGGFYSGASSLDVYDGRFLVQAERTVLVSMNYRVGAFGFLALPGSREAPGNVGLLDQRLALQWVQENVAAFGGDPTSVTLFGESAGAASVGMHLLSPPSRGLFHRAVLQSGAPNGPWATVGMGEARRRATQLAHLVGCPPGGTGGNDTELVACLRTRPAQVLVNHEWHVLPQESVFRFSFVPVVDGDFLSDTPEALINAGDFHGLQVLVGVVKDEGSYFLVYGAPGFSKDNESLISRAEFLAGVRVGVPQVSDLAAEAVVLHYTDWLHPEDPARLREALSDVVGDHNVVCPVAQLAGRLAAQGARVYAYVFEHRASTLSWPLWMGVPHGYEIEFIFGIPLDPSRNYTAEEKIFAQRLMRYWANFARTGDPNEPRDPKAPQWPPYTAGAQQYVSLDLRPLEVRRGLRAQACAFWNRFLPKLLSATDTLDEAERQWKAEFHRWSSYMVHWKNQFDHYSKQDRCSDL

## CC(C)=CCC[C@@](C)(O)[C@H]1CC=C(C)CC1
[1]
  Activity: Active
[2]
  inhibition: Active
[3]
  inhibition: Active
[4]
  Activity: 0.62%
[5]
  Activity: Active
[6]
  inhibition: Active
[7]
  Activity: Active
Acetylcholinesterase
  IC50: < 45 µM
[8]
  Survival: 96%
[9]
  inhibition: Active
[10]
  Activity: Active
[11]
  Activity: > 80%
[12]
  Activity: 1.32%
[13]
  Activity: 97.8%
[14]
  Activity: 0.31%

## COc1ccc2c3c1O[C@H]1C[C@@H](O)C=C[C@@]31CCN(C)C2
[15]
  Activity: Active
[16]
  inhibition: Active
[17]
  Activity: Active
[18]
  inhibition: Active
[19]
  Activity: Active

## COc1cc2c(cc1OC)C(=O)C(CC1CCN(Cc3ccccc3)CC1)C2 (stereo unspecified)
[20]
  Activity: 2%
[21]
  Activity: 81%
[22]
  Survival: 96%
[23]
  Activity: 96.2%
[24]
  Activity: 1.58%
[25]
  Activity: 0.26%

— ChEMBL document CHEMBL4138190, “Anti-amyloidogenic and anti-apoptotic effect of α-bisabolol against Aβ induced neurotoxicity in PC12 cells” (Eur J Med Chem, 2018)
